Test: Solubility in 0.1 M phosphate buffer at pH 7
Type: physicochemical
Conditions: 0.1 M phosphate buffer at pH 7, 10 mg/mL final peptide concentration, shaking 2 hours at room temperature, peptides as TFA-salts; measured sample pH 6.5-7.0; read-out: Solubility
Description: Peptides (as TFA-salts) were weighed out in a filter unit (Mini-UniPrep Syringeless Filter 0.45 μm, Whatman PVDF), and 0.1 M phosphate buffer at pH 7 was added to achieve 10 mg/mL final peptide concentration. The peptides were dissolved by shaking the filter units horizontally at 600 rpm for 2 hours at room temperature. Samples were then filtered to remove any insoluble particles. Controls were prepared by weighing out the corresponding peptide solid material and dissolving it in an appropriate vehicle (e.g. ACN:H2O) to a final concentration of 1 mg/mL. Both, the control and sample were analyzed by reversed phase chromatography. The area under the peak of the sample was compared to the control and the solubility was calculated based on that ratio. The pH was measured and recorded for each sample.
CC[C@H](C)[C@H](NC(=O)[C@H](CC(C)C)NC(=O)[C@H](Cc1c[nH]cn1)NC(=O)[C@H](CCCNC(=N)N)NC(=O)[C@@H](NC(=O)[C@H](Cc1ccccc1)NC(=O)[C@H](C)NC(=O)C(C)(C)NC(=O)[C@H](CCC(N)=O)NC(=O)[C@H](C)NC(=O)[C@H](CCC(N)=O)NC(=O)[C@H](CCC(=O)O)NC(=O)[C@H](CC(=O)O)NC(=O)[C@H](CC(C)C)NC(=O)C(C)(C)NC(=O)[C@@H](NC(=O)[C@H](CO)NC(=O)[C@H](Cc1ccc(O)cc1)NC(=O)[C@H](CC(=O)O)NC(=O)[C@H](CO)NC(=O)[C@@H](NC(=O)[C@H](Cc1ccccc1)NC(=O)[C@@H](NC(=O)CNC(=O)[C@H](CCC(=O)O)NC(=O)C(C)(C)NC(=O)[C@@H](N)Cc1ccc(O)cc1)[C@@H](C)O)[C@@H](C)O)[C@@H](C)CC)C(C)C)C(=O)N[C@@H](CC(N)=O)C(=O)N[C@@H](CCCCNC(=O)[C@@H](N)CCCCNC(=O)CC[C@H](NC(=O)CC[C@H](NC(=O)CC[C@H](NC(=O)CC[C@H](NC(=O)CC[C@H](NC(=O)CCCCCCCCCCCCCCCCC(=O)O)C(=O)O)C(=O)O)C(=O)O)C(=O)O)C(=O)O)C(=O)NC(C)(C)C(=O)N[C@H](C(=O)N[C@@H](CCCNC(=N)N)C(=O)N[C@@H](CCC(N)=O)C(=O)N[C@@H](CCCNC(=N)N)C(=O)N[C@@H](Cc1ccc(O)cc1)C(N)=O)[C@@H](C)O [Compound 108, Y-Aib-E-G-T-F-T-S-D-Y-S-I-Aib-L-D-E-Q-A-Q-Aib-A-F-V-R-H-L-I-N-K(1,3)-Aib-T-R-Q-R-Y-NH2.C18DA-gGlu-gGlu-gGlu-gGlu-gGlu-eLys(1,2)] gave a solubility of 9200 µg/mL. Molecule CC[C@H](C)[C@H](NC(=O)[C@H](CC(C)C)NC(=O)[C@H](Cc1c[nH]cn1)NC(=O)[C@H](CCCNC(=N)N)NC(=O)[C@@H](NC(=O)[C@H](Cc1ccccc1)NC(=O)[C@H](C)NC(=O)C(C)(C)NC(=O)[C@H](CCC(N)=O)NC(=O)[C@H](C)NC(=O)[C@H](CCC(N)=O)NC(=O)[C@H](CCCCN)NC(=O)[C@H](CCC(=O)O)NC(=O)[C@H](CC(C)C)NC(=O)C(C)(C)NC(=O)[C@@H](NC(=O)[C@H](CO)NC(=O)[C@H](Cc1ccc(O)cc1)NC(=O)[C@H](CC(=O)O)NC(=O)[C@H](CO)NC(=O)[C@@H](NC(=O)[C@H](Cc1ccccc1)NC(=O)[C@@H](NC(=O)CNC(=O)[C@H](CCC(=O)O)NC(=O)C(C)(C)NC(=O)[C@@H](N)Cc1ccc(O)cc1)[C@@H](C)O)[C@@H](C)O)[C@@H](C)CC)C(C)C)C(=O)N[C@@H](CC(N)=O)C(=O)N[C@@H](CCCCNC(=O)COCCOCCNC(=O)CC[C@H](NC(=O)CC[C@H](NC(=O)CC[C@H](NC(=O)CC[C@H](NC(=O)CCCCCCCCCCCCCCCCC(=O)O)C(=O)O)C(=O)O)C(=O)O)C(=O)O)C(=O)NC(C)(C)C(=O)N[C@H](C(=O)N[C@@H](CCCNC(=N)N)C(=O)N[C@@H](CCC(N)=O)C(=O)N[C@@H](CCCNC(=N)N)C(=O)N[C@@H](Cc1ccc(O)cc1)C(N)=O)[C@@H](C)O [Compound 110, Y-Aib-E-G-T-F-T-S-D-Y-S-I-Aib-L-E-K-Q-A-Q-Aib-A-F-V-R-H-L-I-N-K(1,3)-Aib-T-R-Q-R-Y-NH2.C18DA-gGlu-gGlu-gGlu-gGlu-OEG(1,2)] has a solubility of 800 µg/mL. In the case of CC[C@H](C)[C@H](NC(=O)[C@H](CC(C)C)NC(=O)[C@H](Cc1c[nH]cn1)NC(=O)[C@H](CCCNC(=N)N)NC(=O)[C@@H](NC(=O)[C@H](Cc1ccccc1)NC(=O)[C@H](C)NC(=O)C(C)(C)NC(=O)[C@H](C)NC(=O)[C@H](C)NC(=O)[C@H](CCC(N)=O)NC(=O)[C@H](CCCCN)NC(=O)[C@H](CCC(=O)O)NC(=O)[C@H](CC(C)C)NC(=O)C(C)(C)NC(=O)[C@@H](NC(=O)[C@H](CO)NC(=O)[C@H](Cc1ccc(O)cc1)NC(=O)[C@H](CC(=O)O)NC(=O)[C@H](CO)NC(=O)[C@@H](NC(=O)[C@H](Cc1ccccc1)NC(=O)[C@@H](NC(=O)CNC(=O)[C@H](CCC(=O)O)NC(=O)C(C)(C)NC(=O)[C@@H](N)Cc1ccc(O)cc1)[C@@H](C)O)[C@@H](C)O)[C@@H](C)CC)C(C)C)C(=O)N[C@@H](CC(N)=O)C(=O)N[C@@H](CCCCNC(=O)[C@@H](N)CCCCNC(=O)CC[C@H](NC(=O)CC[C@H](NC(=O)CC[C@H](NC(=O)CC[C@H](NC(=O)CC[C@H](NC(=O)CC[C@H](NC(=O)CCCCCCCCCCCCCCCCC(=O)O)C(=O)O)C(=O)O)C(=O)O)C(=O)O)C(=O)O)C(=O)O)C(=O)NC(C)(C)C(=O)N[C@H](C(=O)N[C@@H](CCCNC(=N)N)C(=O)N[C@@H](CCC(N)=O)C(=O)N[C@@H](CCCNC(=N)N)C(=O)N[C@@H](Cc1ccc(O)cc1)C(N)=O)[C@@H](C)O [Compound 111, Y-Aib-E-G-T-F-T-S-D-Y-S-I-Aib-L-E-K-Q-A-A-Aib-A-F-V-R-H-L-I-N-K(1,3)-Aib-T-R-Q-R-Y-NH2.C18DA-gGlu-gGlu-gGlu-gGlu-gGlu-gGlu-eLys(1,2)], the solubility is reported as 4000 µg/mL. Work on CC[C@H](C)[C@H](NC(=O)[C@H](CC(C)C)NC(=O)[C@H](Cc1c[nH]cn1)NC(=O)[C@H](CCCNC(=N)N)NC(=O)[C@@H](NC(=O)[C@H](Cc1ccccc1)NC(=O)[C@H](C)NC(=O)C(C)(C)NC(=O)[C@H](CCC(N)=O)NC(=O)[C@H](C)NC(=O)[C@H](CCC(N)=O)NC(=O)[C@H](CCCCN)NC(=O)[C@H](CCC(=O)O)NC(=O)[C@H](CC(C)C)NC(=O)C(C)(C)NC(=O)[C@H](CCC(=O)O)NC(=O)[C@H](CO)NC(=O)[C@H](Cc1ccc(O)cc1)NC(=O)[C@H](CC(=O)O)NC(=O)[C@H](CO)NC(=O)[C@@H](NC(=O)[C@H](Cc1ccccc1)NC(=O)[C@@H](NC(=O)CNC(=O)[C@H](CCC(=O)O)NC(=O)C(C)(C)NC(=O)[C@@H](N)Cc1ccc(O)cc1)[C@@H](C)O)[C@@H](C)O)C(C)C)C(=O)N[C@@H](CC(N)=O)C(=O)N[C@@H](CCCCNC(=O)[C@@H](N)CCCCNC(=O)CC[C@H](NC(=O)CC[C@H](NC(=O)CC[C@H](NC(=O)CC[C@H](NC(=O)CC[C@H](NC(=O)CC[C@H](NC(=O)CCCCCCCCCCCCCCCCC(=O)O)C(=O)O)C(=O)O)C(=O)O)C(=O)O)C(=O)O)C(=O)O)C(=O)NC(C)(C)C(=O)N[C@H](C(=O)N[C@@H](CCCNC(=N)N)C(=O)N[C@@H](CCC(N)=O)C(=O)N[C@@H](CCCNC(=N)N)C(=O)N[C@@H](Cc1ccc(O)cc1)C(N)=O)[C@@H](C)O [Compound 112, Y-Aib-E-G-T-F-T-S-D-Y-S-E-Aib-L-E-K-Q-A-Q-Aib-A-F-V-R-H-L-I-N-K(1,3)-Aib-T-R-Q-R-Y-NH2.C18DA-gGlu-gGlu-gGlu-gGlu-gGlu-gGlu-eLys(1,2)] yielded a solubility of 4400 µg/mL. Molecule CC[C@H](C)[C@H](NC(=O)[C@H](CC(C)C)NC(=O)[C@H](Cc1c[nH]cn1)NC(=O)[C@H](CCCNC(=N)N)NC(=O)[C@@H](NC(=O)[C@H](Cc1ccccc1)NC(=O)[C@H](C)NC(=O)C(C)(C)NC(=O)[C@H](CCC(N)=O)NC(=O)[C@H](C)NC(=O)[C@H](CCC(N)=O)NC(=O)[C@H](CCCCN)NC(=O)[C@H](CCC(=O)O)NC(=O)[C@H](CC(C)C)NC(=O)C(C)(C)NC(=O)[C@@H](NC(=O)[C@H](CO)NC(=O)[C@H](Cc1ccc(O)cc1)NC(=O)[C@H](CC(=O)O)NC(=O)[C@H](CO)NC(=O)[C@@H](NC(=O)[C@H](Cc1ccccc1)NC(=O)[C@@H](NC(=O)CNC(=O)[C@H](CCC(=O)O)NC(=O)C(C)(C)NC(=O)[C@@H](N)Cc1ccc(O)cc1)[C@@H](C)O)[C@@H](C)O)[C@@H](C)CC)C(C)C)C(=O)N[C@@H](CC(N)=O)C(=O)N[C@@H](CCCCNC(=O)COCCOCCNC(=O)COCCOCCNC(=O)CC[C@H](NC(=O)CC[C@H](NC(=O)CC[C@H](NC(=O)CC[C@H](NC(=O)CC[C@H](NC(=O)CCCCCCCCCCCCCCCCC(=O)O)C(=O)O)C(=O)O)C(=O)O)C(=O)O)C(=O)O)C(=O)NC(C)(C)C(=O)N[C@H](C(=O)N[C@@H](CCCNC(=N)N)C(=O)N[C@@H](CCC(N)=O)C(=O)N[C@@H](CCCNC(=N)N)C(=O)N[C@@H](Cc1ccc(O)cc1)C(N)=O)[C@@H](C)O [Compound 117, Y-Aib-E-G-T-F-T-S-D-Y-S-I-Aib-L-E-K-Q-A-Q-Aib-A-F-V-R-H-L-I-N-K(1,3)-Aib-T-R-Q-R-Y-NH2.C18DA-gGlu-gGlu-gGlu-gGlu-gGlu-OEG-OEG(1,2)] has a solubility of 4800 µg/mL. CC[C@H](C)[C@H](NC(=O)[C@H](CC(C)C)NC(=O)[C@H](Cc1c[nH]cn1)NC(=O)[C@H](CCCNC(=N)N)NC(=O)[C@@H](NC(=O)[C@H](Cc1ccccc1)NC(=O)[C@H](C)NC(=O)C(C)(C)NC(=O)[C@H](CCC(N)=O)NC(=O)[C@H](C)NC(=O)[C@H](CCC(N)=O)NC(=O)[C@H](CCCCN)NC(=O)[C@H](CCC(=O)O)NC(=O)[C@H](CC(C)C)NC(=O)C(C)(C)NC(=O)[C@@H](NC(=O)[C@H](CO)NC(=O)[C@H](Cc1ccc(O)cc1)NC(=O)[C@H](CC(=O)O)NC(=O)[C@H](CO)NC(=O)[C@@H](NC(=O)[C@H](Cc1ccccc1)NC(=O)[C@@H](NC(=O)CNC(=O)[C@H](CCC(=O)O)NC(=O)C(C)(C)NC(=O)[C@@H](N)Cc1ccc(O)cc1)[C@@H](C)O)[C@@H](C)O)[C@@H](C)CC)C(C)C)C(=O)N[C@@H](CC(N)=O)C(=O)N[C@@H](CCCCNC(=O)[C@@H](N)CCNC(=O)CC[C@H](NC(=O)CC[C@H](NC(=O)CC[C@H](NC(=O)CC[C@H](NC(=O)CC[C@H](NC(=O)CC[C@H](NC(=O)CCCCCCCCCCCCCCCCC(=O)O)C(=O)O)C(=O)O)C(=O)O)C(=O)O)C(=O)O)C(=O)O)C(=O)NC(C)(C)C(=O)N[C@H](C(=O)N[C@@H](CCCNC(=N)N)C(=O)N[C@@H](CCC(N)=O)C(=O)N[C@@H](CCCNC(=N)N)C(=O)N[C@@H](Cc1ccc(O)cc1)C(N)=O)[C@@H](C)O [Compound 120, Y-Aib-E-G-T-F-T-S-D-Y-S-I-Aib-L-E-K-Q-A-Q-Aib-A-F-V-R-H-L-I-N-K(1,3)-Aib-T-R-Q-R-Y-NH2.C18DA-gGlu-gGlu-gGlu-gGlu-gGlu-gGlu-gDab(1,2)] gave a solubility of 4700 µg/mL.

Reference: patent US20250382344A1, “Soluble GLP1/GIP/NPY2 Receptor Triple Agonists” (Boehringer Ingelheim International GmH, priority 2024, published 2025)
